Laboratory results taken from patent US6586592B2, “Bis-arylsulfones” (Pharmacia & Upjohn Company, priority 2000, dated 2003).
Counter-ions that a name gives are not always drawn.

Legend:
[1] = target: T1, cloned human 5-HT6 receptor (Homo sapiens, UniProt P50406); assay: 5-HT6 receptor binding assay ([3H]-LSD radioligand, SPA beads); details: membranes of Hela cells containing cloned human 5-HT6 receptor, IC50 converted to Ki by Cheng-Prusoff
T1 construct: membrane preparation
Procedure: 5-HT6 Receport Binding Assay
Growth of Cells and Membrane Preparation
Harvested intact cells are washed once in cold phosphate-buffered saline. The cells are pelleted and resuspended in 100 ml of cold 50 mM Tris, 5 mM EDTA and 5 mM EGTA, pH 7.4. Homogenization is with a Vir Tishear generator, 4 cycles for 30 seconds each at setting 50. The homogenized cells are centrifuged at 700 RPM (1000×g) for 10 minutes and the supernatant is removed. […] The rehomogenized cells are then centrifuged at 700 RPM (1000×g) for 10 minutes and the supernatant is removed. […] The membrane pellet is resupended in 50-8-ml of assay buffer containing HEPES 20 mM, MgCl2 10 mM, NaCl 150 mM, EDTA 1 mM, pH 7.4 and stored frozen in aliqouts at −70° C.
5-HT6 Receptor Binding Assay
The radioligand binding assay used [^3H]-lysergic acid diethylamide (LSD). The assay is carried out in Wallac 96-well sample plates by the addition of 11 μl of the test sample at the appropriate dilution (the assay employed 11 serial concentrations of samples run in duplicate), 11 μl of radioligand, and 178 μl of a washed mixture of WGA-coated SPA beads and membranes in binding buffer. The plates are shaken for about 5 minutes and then incubated at room temperature for 1 hour. The plates are then loaded into counting cassettes and counted in a Wallac MicroBeta Trilux scintillation counter.
Binding Constant (Ki) Determination
Eleven serial dilutions of test compounds are distributed to assay plates using the PE/Cetus Pro/Pette pipetter. These dilutions were, followed by radioligand and the bead-membrane mixture prepared as described above. The specifically bound cpm obtained are fit to a one-site binding model using GraphPad Prism ver. 2.0.

T1 sequence (P50406 whole entry): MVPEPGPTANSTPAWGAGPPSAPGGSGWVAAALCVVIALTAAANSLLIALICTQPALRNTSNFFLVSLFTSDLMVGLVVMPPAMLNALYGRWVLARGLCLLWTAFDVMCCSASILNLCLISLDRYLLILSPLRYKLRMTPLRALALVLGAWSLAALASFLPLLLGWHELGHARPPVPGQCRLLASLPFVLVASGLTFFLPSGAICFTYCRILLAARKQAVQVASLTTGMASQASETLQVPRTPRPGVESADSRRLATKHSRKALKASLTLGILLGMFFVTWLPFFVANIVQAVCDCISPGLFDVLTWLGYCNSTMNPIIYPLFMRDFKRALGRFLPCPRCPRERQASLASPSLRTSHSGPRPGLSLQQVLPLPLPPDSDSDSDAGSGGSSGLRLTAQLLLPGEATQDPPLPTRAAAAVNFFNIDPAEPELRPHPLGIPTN

SMILES | melting point | Ki [1]
Nc1cc(N2CCNCC2)ccc1S(=O)(=O)c1ccc(F)cc1 [Example 3, 2-[(4-fluorophenyl)sulfonyl]-5-(1-piperazinyl) Phenylamine] |  | 31 nM
Nc1cc(N2CCNCC2)ccc1S(=O)(=O)c1ccccc1 (as salt: salt) [Example 1, 2-(phenylsulfonyl)-5-(1-piperazinyl)phenylamine] | 165 to 166 °C | 
CN1CCN(c2ccc(S(=O)(=O)c3ccc(F)cc3)c(N)c2)CC1.Cl [Example 4, 2-[(4-fluorophenyl)sulfonyl]-5-(4-methyl-1-piperazinyl) Phenylamine] | 85 to 89 °C | 32 nM
CN1CCN(c2ccc(S(=O)(=O)c3cccc(F)c3)c(N)c2)CC1.Cl [Example 8, 2-[(3-fluorophenyl)sulfonyl]-5-(4-methyl-1-piperazinyl) Phenylamine] | 89 to 92 °C | 5.2 nM
Nc1cc(N2CCCNCC2)ccc1S(=O)(=O)c1ccccc1 [Example 10, 5-(1,4-diazepan-1-yl)-2-(phenylsulfonyl) Phenylamine] |  | 11 nM
CNc1cc(N2CCCNCC2)ccc1S(=O)(=O)c1cccc(F)c1.Cl | 153 to 154 °C | 
Cc1ccc(S(=O)(=O)c2ccc(N3CCN(C)CC3)cc2N)cc1 [Example 6, 2-[(4-methylphenyl)sulfonyl]-5-(4-methyl-1-piperazinyl) Phenylamine] | 148 to 151 °C | 68 nM
Cc1ccc(S(=O)(=O)c2ccc(N3CCNCC3)cc2N)cc1 [Example 5, 2-[(4-methylphenyl)sulfonyl]-5-(1-piperazinyl) Phenylamine] | 102 to 106 °C | 23 nM
Nc1cc(N2CCCNCC2)ccc1S(=O)(=O)c1ccc(F)c(F)c1 [Example 9, 5-(1,4-diazepan-1-yl)-2-[(3,4-difluorophenyl)sulfonyl]phenylamine] |  | 79 nM

Results, then the compound that gave them:

melting point | Ki [1] | SMILES
106 to 108 °C |  | Cl.Nc1cc(N2CCCNCC2)ccc1S(=O)(=O)c1cccc(F)c1 [Example 2, 5-(1,4-diazepan-1-yl)-2-[(3-fluorophenyl)sulfonyl]phenylamine]
 | 11 nM | Nc1cc(N2CCCNCC2)ccc1S(=O)(=O)c1cc(F)cc(F)c1 [Example 11, 5-(1,4-diazepan-1-yl)-2-[(3,5-difluorophenyl)sulfonyl]phenylamine]
121 to 123 °C |  | CCNc1cc(N2CCNCC2)ccc1S(=O)(=O)c1ccccc1.Cl [Example 13, N-ethyl-2-(phenylsulfonyl)-5-(1-piperazinyl) Phenylamine]
90 to 93 °C | 3.6 nM | CN1CCN(c2ccc(S(=O)(=O)c3ccccc3)c(N)c2)CC1.Cl [Example 7, 5-(4-methyl-1-piperazinyl)-2-(phenylsulfonyl) Phenylamine]
 | 2.6 nM | Nc1cc(N2CCNCC2)ccc1S(=O)(=O)c1ccccc1 [Example 1, 2-(phenylsulfonyl)-5-(1-piperazinyl)phenylamine]
